# Molecular target: T1, IdeC (Immunoglobulin G degrading enzyme of S. canis) (Streptococcus canis, UniProt A0A3P5YAY8)
# T1 construct: gene ide; full-length construct 30-339 as printed for the C94S crystal form), His6 tag from pQE30, E. coli M15 pREP, Ni-TED purified, ~35 kDa, mainly monomer; printed PDB entries are of C94S forms
# Experiment: feline and canine IgG cleavage, SDS-PAGE
# Format: biochemical
# Details: 2.5 uM inhibitor, 30 min preincubation at room temperature; IgG 37 C 2.5 h; cysteine protease inhibitor, irreversible (general statement)
# T1 sequence (A0A3P5YAY8 entry or part of it): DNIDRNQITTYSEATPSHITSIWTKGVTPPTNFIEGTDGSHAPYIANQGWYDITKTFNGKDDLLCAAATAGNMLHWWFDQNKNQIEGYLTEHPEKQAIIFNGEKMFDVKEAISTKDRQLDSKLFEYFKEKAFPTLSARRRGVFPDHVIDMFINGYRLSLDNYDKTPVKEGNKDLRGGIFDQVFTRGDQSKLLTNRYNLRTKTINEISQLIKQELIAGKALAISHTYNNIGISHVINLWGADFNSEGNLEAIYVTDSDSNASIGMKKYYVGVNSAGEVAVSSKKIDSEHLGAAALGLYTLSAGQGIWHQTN
smiles,measurement,value
CC(C)C[C@H](NC(=O)[C@@H]1O[C@H]1C(=O)O)C(=O)NCCCCN=C(N)N [E-64],"feline and canine IgG cleavage, SDS-PAGE",the cysteine protease inhibitors Iodo and E-64 resulted in weaker cleavage product bands

# From paper PMC12418751, “Structural and functional characterization of IdeC, a novel IgG-specific protease of Streptococcus canis” (Infection and Immunity, 2025)
